Reference: article PMC2648976 (Biochemistry, 2008)
“Also recorded” adds a separate entry of the source. Where a SMILES comes first, the peptide text is derived from it. The star is where a group is joined. AMC = Cc1cc(=O)oc2cc(N*)ccc12

Legend:
WNV NS2B-NS3 protease [1] = target: T1, WNV NS2B-NS3 protease (West Nile virus, UniProt Q9Q6P4); assay: NS2B-NS3pro kinetic assay, cleavage of fluorophore-linked; assay type: biochemical; settings: for substrate inhibition (reaction mechanism): high substrate concentrations
WNV NS2B-NS3 protease [2] = target: T1, WNV NS2B-NS3 protease; assay: Inhibition of NS2B-NS3pro by product-analog peptides; assay type: biochemical; settings: for Kd (substrate) compared with Ki1 (inhibitor) / difference between Kd2 (substrate) and Ki2 (inhibitor): mixed inhibitor-substrate inhibition model
[3] = 200 mM Tris pH 9.0, 20% glycerol

T1 sequence (Q9Q6P4 1428-1467 limits assumed, looked up): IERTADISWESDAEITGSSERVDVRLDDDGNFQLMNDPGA
T1 sequence (Q9Q6P4 1506-1683 limits assumed, looked up): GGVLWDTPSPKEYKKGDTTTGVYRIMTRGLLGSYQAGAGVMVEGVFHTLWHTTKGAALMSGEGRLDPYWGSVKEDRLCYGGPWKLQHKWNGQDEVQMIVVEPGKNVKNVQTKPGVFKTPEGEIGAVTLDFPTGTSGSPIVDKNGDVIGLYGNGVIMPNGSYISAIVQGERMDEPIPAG

With CC(=O)N[C@@H](CC(=O)O)C(=O)N[C@@H](Cc1ccccc1)C(=O)N[C@@H](C)C(=O)N[C@@H](CO)C(=O)NCC(=O)N[C@@H](CCCCN)C(=O)N[C@@H](CCCNC(=N)N)C(=O)Nc1ccc2c(C)cc(=O)oc2c1 [Ac-DFASGKR-AMC, Ac-Asp-Phe-Ala-Ser-Gly-Lys-Arg-AMC] (Ac-DFASGKR-{AMC}) the “substrate inhibition (reaction mechanism)” value (WNV NS2B-NS3 protease [1]; [3]) was “substrate inhibition was also observed with the longer substrate (Figure 2b), though it was observed at higher substrate concentrations compared to the tripeptide substrates; also recorded: substrate inhibition model” and the “substrate inhibition (reaction mechanism)” value (WNV NS2B-NS3 protease [1]; 200 mM Tris pH 9.0, 20% glycerol, listed as Ac-Asp-Phe-Ala-Ser-Gly-Lys-Arg-AMC) was “demonstrated substrate inhibition”.
With CC(=O)NCC(=O)N[C@@H](CCCNC(=N)N)C(=O)N[C@@H](CCCNC(=N)N)C(N)=O [Ac-GRR-NH2] the “Kd (substrate) compared with Ki1 (inhibitor)” value (WNV NS2B-NS3 protease [2]) was “similar”, the “difference between Kd2 (substrate) and Ki2 (inhibitor)” value (WNV NS2B-NS3 protease [2]) was ~ 2 -fold and the “Ki3 (interaction with substrate-inhibited enzyme-substrate complex)” value (WNV NS2B-NS3 protease [2]; model with and without this interaction similar) was “large Ki3 which did not play a substantial role in the overall inhibition”.
Ac-DFASGKR was tested, and the “Kd (substrate) compared with Ki1 (inhibitor)” value (WNV NS2B-NS3 protease [2]) was “very similar”, the “difference between Kd2 (substrate) and Ki2 (inhibitor)” value (WNV NS2B-NS3 protease [2]) was ~ 2 -fold and the mechanism of inhibition (WNV NS2B-NS3 protease [2]; model discrimination analysis with Dynafit) was “mixed inhibitor-substrate inhibition model; also recorded: mixed non-competitive mechanism (with both competitive and uncompetitive interactions)”.
With Cc1cc(=O)oc2cc(NC(=O)[C@H](CCCNC(=N)N)NC(=O)[C@H](CCCNC(=N)N)NC(=O)CNC(=O)OC(C)(C)C)ccc12 [Boc-GRR-AMC, Boc-Gly-Arg-Arg-AMC] the “NS2B-NS3pro activity against substrate” value (WNV NS2B-NS3 protease [1]; [3]) was “clearly active”, the “relative binding (Kd)” value (WNV NS2B-NS3 protease [1]; Boc-GRR-AMC relative to Ac-DFASGKR-AMC) was “tighter binding (lower Kd)” and the “relative extent of substrate inhibition” value (WNV NS2B-NS3 protease [1]; at high substrate concentrations) was “more pronounced with Boc-GRR-AMC than with Boc-GKR-AMC (data not shown) or Ac-DFASGKR-AMC”. For the same compound, the “substrate inhibition (reaction mechanism)” value (WNV NS2B-NS3 protease [1]; [3]) was “initial reaction velocities reached a peak and then decreased with increasing substrate concentration; also recorded: substrate inhibition model” and the “substrate inhibition (reaction mechanism)” value (WNV NS2B-NS3 protease [1]; 200 mM Tris pH 9.0, 20% glycerol, listed as Boc-Gly-Arg-Arg-AMC) was “demonstrated substrate inhibition”.
